The record followed here is the NIST ThermoML archive (doi:10.1016/j.fluid.2014.06.024).

The speed of sound is how fast a sound wave travels through the sample. As usually defined, the mass density is the mass of a sample divided by its volume.

± gives the expanded uncertainty stated by the source.

The conditions of data set [1]: 101.33 kPa, Liquid; for speed of sound: Sing-around technique in a fixed-path interferometer; for mass density: Vibrating tube method.
Data set [2] is described as follows: molar heat capacity at constant pressure. The conditions noted are these: 101.33 kPa, Liquid, Small sample (50 mg) DSC.

With `Cc1ccccc1` [toluene], the speed of sound in data set [1] (298.15 K) was found to be 1304.6 ± 1 m/s; in data set [1] (303.15 K), 1283.2 ± 1 m/s; in data set [1] (308.15 K), 1261.8 ± 1 m/s. Also, the results for the mass density in data set [1] (298.15 K), in data set [1] (303.15 K) and in data set [1] (308.15 K) were 862.18 ± 1 kg/m3, 857.51 ± 1 kg/m3 and 852.82 ± 1 kg/m3, respectively. In addition, the “molar heat capacity at constant pressure” value in data set [2] (298.15 K) is given as 157.18 ± 2.4 J/K/mol; in data set [2] (303.15 K), 158.61 ± 2.5 J/K/mol; in data set [2] (308.15 K) it was 160.09 ± 2.5 J/K/mol.

Consider `Cc1ccccc1C` [1,2-dimethylbenzene], for which the figures for the speed of sound in data set [1] (298.15 K), in data set [1] (303.15 K) and in data set [1] (308.15 K) were 1346.2 ± 0.8 m/s, 1326.2 ± 0.8 m/s and 1306.1 ± 0.8 m/s, respectively. The values for the mass density in data set [1] (298.15 K), in data set [1] (303.15 K) and in data set [1] (308.15 K) were 875.91 ± 1 kg/m3, 871.7 ± 1 kg/m3 and 867.48 ± 1 kg/m3, respectively. Moreover, the “molar heat capacity at constant pressure” value in data set [2] (298.15 K) is 187.55 ± 2.9 J/K/mol; in data set [2] (303.15 K), 189.11 ± 2.9 J/K/mol; in data set [2] (308.15 K), 190.62 ± 3 J/K/mol.

As to `C1CCOCC1` [tetrahydropyran], the figures for the speed of sound in data set [1] (298.15 K), in data set [1] (303.15 K) and in data set [1] (308.15 K) were 1269.8 ± 0.9 m/s, 1246.8 ± 0.9 m/s and 1224.4 ± 0.9 m/s, respectively. The mass density in data set [1] (298.15 K) worked out at 879.13 ± 1 kg/m3; in data set [1] (303.15 K) it was 873.99 ± 1 kg/m3; in data set [1] (308.15 K), 868.83 ± 1 kg/m3. Also, the entries for the “molar heat capacity at constant pressure” value in data set [2] (298.15 K), in data set [2] (303.15 K) and in data set [2] (308.15 K) were 149.62 ± 2.3 J/K/mol, 151.22 ± 2.3 J/K/mol and 153.08 ± 2.4 J/K/mol, respectively.

For the compound `c1ccccc1` [benzene], the values for the speed of sound in data set [1] (298.15 K), in data set [1] (303.15 K) and in data set [1] (308.15 K) were 1299.4 ± 0.8 m/s, 1276.1 ± 0.82 m/s and 1252.9 ± 0.82 m/s, respectively. In addition, the mass density was 873.54 ± 1 kg/m3 in data set [1] (298.15 K), 868.2 ± 1 kg/m3 in data set [1] (303.15 K) and 862.84 ± 1 kg/m3 in data set [1] (308.15 K). Also, the “molar heat capacity at constant pressure” value in data set [2] (298.15 K) is on record as 135.18 ± 2.1 J/K/mol; in data set [2] (303.15 K), 136.4 ± 2.1 J/K/mol; in data set [2] (308.15 K), 137.61 ± 2.1 J/K/mol.

On to `Cc1ccccc1Cl` [2-chlorotoluene], for which the speed of sound is given as 1298.7 ± 1 m/s in data set [1] (298.15 K), 1280.7 ± 1 m/s in data set [1] (303.15 K) and 1262.7 ± 1 m/s in data set [1] (308.15 K). Also, the mass density is given as 1077.3 ± 1 kg/m3 in data set [1] (298.15 K), 1072.5 ± 1 kg/m3 in data set [1] (303.15 K) and 1067.6 ± 1 kg/m3 in data set [1] (308.15 K). Also, the “molar heat capacity at constant pressure” value is 178.21 ± 2.8 J/K/mol in data set [2] (298.15 K), 180.01 ± 2.8 J/K/mol in data set [2] (303.15 K) and 181.71 ± 2.8 J/K/mol in data set [2] (308.15 K).
